Experimental findings from patent US11440922B2, “Heterocyclylmethylidene derivatives and their use as modulators of mGluR5 receptors” (Recordati Industria Chimica e Farmaceutica S.p.A., priority 2017, dated 2022) are described below.

In one assay the target is human mGlu5 receptor (Homo sapiens (Human), UniProt P41594). Kind of assay: Calcium fluorescence measurements, antagonist potency (negative allosteric modulator activity). The following applies: EC80 of quisqualate as agonist, compounds applied 10 minutes before agonist. The assay is classed as cell-based. The source says: (§1) Cell lines stably transfected were generated using inducible expression vectors encoding human mGlu5 receptor using the Tetracycline-Regulated Expression system (T-REx™ system, Invitrogen, Life Technologies). Human mGluR5 open reading frame (ORF), comprehensive of the stop codon, were cloned into the pcDNA4/TO/myc-His™ A vector, carrying the TetO2. The insertion site was HindIII-PstI for mGluR5 receptors. The obtained constructs were then transfected into the T-REx CHO™ cell line using the FuGENE protocol (Roche); the CHO T-REx™ cell line stably expresses the Tet repressor (from the pcDNA6/TR plasmid) under the selection of blasticidin, 10 μg/ml. Stable clones were obtained selecting with zeocin 1 mg/ml and maintaining in ULTRA CHO medium (LONZA) supplemented with dialyzed FBS, zeocin, blasticidine, at 37° C., in an atmosphere of 5% CO2. The expression of h-mGluR5 receptors was de-repressed with 1 μg/ml tetracycline for 18 h before binding experimentation, while the expression of h-mGluR5 receptors was derepressed respectively with 3 ng/ml and 10 ng/ml tetracycline for 18 h before calcium fluorescence experimentation.
Cells were seeded into black-walled, clear-bottom, 96-well plates at a density of 80000 cell/well, in RPMI (without Phenol Red, without L-glutamine; Gibco LifeTechnologies, CA) supplemented with 10% dialyzed FBS. Following 18-h incubation with tetracycline, the cells were loaded with […] Ca^2+-sensitive fluorescent dye Fluo-4/AM (Molecular Probes) in Hanks' balanced saline solution (HBSS, Gibco LifeTechnologies, CA) with […] Hepes (Sigma) and 2.5 mM probenecid (Sigma), for 1 h at 37° C. The cells were washed three times with HBSS to remove extracellular dye. Fluorescence signals were measured by using the fluorescence microplate reader Flexstation III (Molecular Devices) at sampling intervals of 1.5 s for 60 s.
The antagonist potency was determined using the EC80 of the quisqualate used as agonist and the potentiation of mGlu5 activation was determined using the EC20 of the agonist (quisqualate or glutamate). The compounds were applied 10 minutes before the application of the agonist.
The negative allosteric modulator activity (expressed as IC50) and the positive allosteric modulator activity (expressed as EC50) of the compounds of the invention for the mGlu5 receptors is between 0.1 and 1000 nM.
(§2) The inhibition curves of the tested compounds at cloned mGluR5 subtypes were determined by nonlinear regression analysis using software Prism 4.0 (Graphpad, San Diego, Calif.). The IC50 values and pseudo-Hill slope coefficients were estimated by the program. The values for the inhibition constant, Ki, were calculated according to the equation Ki=IC50/(1+[L]/Kd), where [L] is the concentration of radioligand and Kd is the equilibrium dissociation constant of the radioligand-receptor complex (Cheng et al., Biochem. Pharmacol. (1973), Vol. 22, pp. 3099-3108).

The next assay concerns the target human mGluR5 receptor (Homo sapiens (Human), UniProt P41594). Kind of assay: Radioligand binding assay at cloned human mGluR5 receptor subtype ([3H]MPEP). To be noted: 4 nM [3H]MPEP, CHO T-REx h-mGluR5 cells, 60 min at 25° C.; read-out: mGlu5 Ki.
Source text: as §1
Radioligand Binding Assay at Cloned Human mGluR5 Receptor Subtype
Affinity at transmembrane glutamate metabotropic cloned human mGluR5 receptor was evaluated according to the methods of Anderson (Anderson et al., J Pharmacol. Exp. Ther., (2002), Vol. 303(3), pp. 1044-51), with some modifications. Human cloned mGluR5 was obtained by re-suspending CHO T-REx h-mGluR5 cells (50 μg/well) in 20 mM HEPES, 2 mM MgCl2, 2 mM CaCl2, pH 7.4, that then were incubated in a final volume of 1 ml for 60 min at 25° C. with 4 nM [^3H]MPEP in the absence or presence of competing drugs. Non-specific binding was determined in the presence of 10 μM MPEP. The incubation was stopped by addition of cold Tris buffer pH 7.4 and rapid filtration through 0.2% polyethyleneimine pretreated Filtermat 1204-401 (Perkin Elmer) filters. The filters were then washed with cold buffer and the radioactivity retained on the filters was counted by liquid scintillation spectrometry (Betaplate 1204 BS-Wallac).
as §2

The next assay concerns conscious rats. Briefly: Effect on cystometry in conscious rats. It counts as in vivo, rat. To be noted: Minimal Effective Dose that induces statistically significant increase of bladder volume capacity. As to the method:
Male Sprague-Dawley rats [Crl:CD(SD) IGS BR] of 300-400 g b.w. supplied by Charles River Italia were used. The animals were housed with free access to food and water and maintained on a forced 12-hour-light/12-hour-dark cycle at 22-24° C. of temperature, except during the experiment. To quantify urodynamic parameters in conscious rats, cystometrographic studies were performed according to the procedure previously reported (Guarneri et al., Pharmacol. Res. Vol. 24, No. 2, pp. 175-187, 1991).
Briefly, the rats were anaesthetized by intraperitoneal administration of 3 ml/kg of Equithensin solution (pentobarbital 30 mg/kg and chloral hydrate 125 mg/kg) and placed in a supine position. An approximately 10 mm long midline incision was made in the shaved and cleaned abdominal wall. The urinary bladder was gently freed from adhering tissues, emptied and then cannulated via an incision in the bladder body, using a polyethylene cannula (0.58 mm internal diameter, 0.96 mm external diameter) which was permanently sutured with silk thread. […]
On the day of the experiment, the rats were placed in modified Bollman cages, i.e., restraining cages that were large enough to permit the rats to adopt a normal crouched posture, but narrow enough to prevent turning around. […] The intraluminal-pressure signal during infusion of saline into the bladder (cystometrogram) was continuously recorded on a polygraph (Rectigraph-8K San-ei with BM614/2 amplifier from Biomedica Mangoni) or stored on PC by data acquisition system (PowerLab, Chart 4 software, AD Instruments). From the cystometrogram, bladder volume capacity (BVC) was evaluated. […] Basal BVC value was evaluated as the mean of the values observed in the cystometrograms recorded in an initial period of 30-60 minutes. […] The bladder infusion restarted and changes in BVC were evaluated from the mean values obtained in the cystometrograms observed during 1, 2, and 3 hours after treatment. […]
Each experimental group was composed of 4-11 animals. All data were expressed as mean±standard error. […]

Sequence of human mGluR5 receptor (P41594 21-1212): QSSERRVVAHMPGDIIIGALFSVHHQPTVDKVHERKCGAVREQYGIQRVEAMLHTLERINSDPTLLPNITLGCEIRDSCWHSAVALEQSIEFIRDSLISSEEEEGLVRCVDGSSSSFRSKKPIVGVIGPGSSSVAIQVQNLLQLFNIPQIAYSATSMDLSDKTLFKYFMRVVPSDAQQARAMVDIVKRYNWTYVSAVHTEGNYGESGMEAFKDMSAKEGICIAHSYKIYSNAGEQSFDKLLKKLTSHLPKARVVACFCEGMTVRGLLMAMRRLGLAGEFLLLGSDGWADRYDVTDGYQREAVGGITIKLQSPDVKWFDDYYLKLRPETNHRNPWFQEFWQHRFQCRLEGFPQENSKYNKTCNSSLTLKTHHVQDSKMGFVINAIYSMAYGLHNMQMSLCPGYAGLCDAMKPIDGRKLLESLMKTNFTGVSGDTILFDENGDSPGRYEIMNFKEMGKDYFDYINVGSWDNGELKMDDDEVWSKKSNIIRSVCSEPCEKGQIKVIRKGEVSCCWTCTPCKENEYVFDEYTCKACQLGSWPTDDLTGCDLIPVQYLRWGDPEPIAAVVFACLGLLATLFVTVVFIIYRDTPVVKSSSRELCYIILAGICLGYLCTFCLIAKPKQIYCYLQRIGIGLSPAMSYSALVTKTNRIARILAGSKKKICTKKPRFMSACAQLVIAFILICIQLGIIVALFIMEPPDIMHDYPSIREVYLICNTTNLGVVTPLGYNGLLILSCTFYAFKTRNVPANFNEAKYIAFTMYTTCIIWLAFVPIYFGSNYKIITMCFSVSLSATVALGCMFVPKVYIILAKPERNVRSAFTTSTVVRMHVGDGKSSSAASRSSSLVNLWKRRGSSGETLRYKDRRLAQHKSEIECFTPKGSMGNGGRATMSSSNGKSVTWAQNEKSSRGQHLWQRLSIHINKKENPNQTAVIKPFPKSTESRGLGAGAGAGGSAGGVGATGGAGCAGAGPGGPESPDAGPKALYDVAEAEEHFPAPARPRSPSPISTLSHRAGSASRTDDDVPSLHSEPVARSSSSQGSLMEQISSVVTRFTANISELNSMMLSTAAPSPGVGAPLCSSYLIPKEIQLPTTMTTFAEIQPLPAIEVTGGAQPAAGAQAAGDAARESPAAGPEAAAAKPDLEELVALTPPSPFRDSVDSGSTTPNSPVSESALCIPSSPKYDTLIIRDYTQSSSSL
Sequence of human mGlu5 receptor (P41594 21-1212): as above

On to `CCOC(=O)N1CC/C(=C\C#Cc2cccc(C(F)(F)F)c2)C(C)(C)C1` [Example 22, ethyl (4E)-3,3-dimethyl-4-{3-[3-(trifluoromethyl)phenyl]prop-2-yn-1-ylidene}piperidine-1-carboxylate], for which the IC50 (as a rule, the midpoint of a concentration-inhibition curve) on human mGlu5 receptor was determined as 66.3 nM. Besides, the Ki (commonly a dissociation constant, usually derived from enzyme kinetics or from competition with a known ligand) on human mGluR5 receptor stood at 1.9 nM.
Consider `CCOC(=O)N1CC/C(=C\C#Cc2cc(OC)ccn2)C(C)(C)C1` [Example 25, ethyl (4E)-4-[3-(4-methoxypyridin-2-yl)prop-2-yn-1-ylidene]-3,3-dimethylpiperidine-1-carboxylate], for which, at human mGlu5 receptor, the IC50 was 31.8 nM. The inhibition constant (Ki) on human mGluR5 receptor was found to be 28.6 nM.
Taken in the same sequence, the figures for `CCOC(=O)N1CC/C(=C\C#Cc2cccc(C#N)c2)C(C)(C)C1` [Example 27, ethyl (4E)-4-[3-(3-cyanophenyl)prop-2-yn-1-ylidene]-3,3-dimethylpiperidine-1-carboxylate] were 8.6 nM and 0.64 nM.
Taken in the same sequence, the figures for `CCOC(=O)N1CC/C(=C\C#Cc2cccc(CC#N)c2)C(C)(C)C1` [Example 28, ethyl (4E)-4-{3-[3-(cyanomethyl)phenyl]prop-2-yn-1-ylidene}-3,3-dimethylpiperidine-1-carboxylate] were 37.2 nM and 2.12 nM.
As for `CCOC(=O)N1CC/C(=C\C#Cc2cc(C#N)ccn2)C(C)(C)C1` [Example 31, ethyl (4E)-4-[3-(4-cyanopyridin-2-yl)prop-2-yn-1-ylidene]-3,3-dimethylpiperidine-1-carboxylate], at human mGlu5 receptor, the half-maximal inhibitory concentration (IC50) was 13.5 nM. Besides, on human mGluR5 receptor, the Ki stood at 2.93 nM. Moreover, the ““In vivo” cystometry MED (mg/kg os)” value with conscious rats is listed as 1 mg/kg.
Regarding `CCOC(=O)N1CC/C(=C\C#Cc2cc(F)cc(C#N)c2)C(C)(C)C1` [Example 32, ethyl (4E)-4-[3-(3-cyano-5-fluorophenyl)prop-2-yn-1-ylidene]-3,3-dimethylpiperidine-1-carboxylate], on human mGlu5 receptor, the concentration for half-maximal inhibition (IC50) turned out to be 60 nM. Besides, on human mGluR5 receptor, the inhibition constant Ki was 16.1 nM.
Consider `COC(=O)N1CC/C(=C\C#Cc2cccc(Cl)c2)C(C)(C)C1` [Example 40, methyl (4E)-4-[3-(3-chlorophenyl)prop-2-yn-1-ylidene]-3,3-dimethylpiperidine-1-carboxylate], for which the concentration for half-maximal inhibition (IC50) at human mGlu5 receptor stood at 18.2 nM. Also, the Ki on human mGluR5 receptor was 1.29 nM. Further, the ““In vivo” cystometry MED (mg/kg os)” value in the assay on conscious rats is reported as 3 mg/kg.
In the case of `CCOC(=O)N1CC/C(=C\C#Cc2cccc(C)n2)C1(C)C` [Example 48, ethyl (3E)-2,2-dimethyl-3-[3-(6-methylpyridin-2-yl)prop-2-yn-1-ylidene]pyrrolidine-1-carboxylate], on human mGlu5 receptor, the IC50 was 2.02 nM. For the same compound, the Ki on human mGluR5 receptor stood at 2.44 nM. Moreover, the ““In vivo” cystometry MED (mg/kg os)” value in the assay with conscious rats is reported as 1 mg/kg.
In the case of `CCOC(=O)N1CC/C(=C\C#Cc2cc(Cl)ccn2)C1(C)C` [Example 91, ethyl (3E)-3-[3-(4-chloropyridin-2-yl)prop-2-yn-1-ylidene]-2,2-dimethylpyrrolidine-1-carboxylate], the IC50 on human mGlu5 receptor is 31.6 nM. Further, the Ki on human mGluR5 receptor was determined as 16.3 nM.
The like results for `CCOC(=O)N1CC/C(=C\C#Cc2cccc(Cl)c2)C1(C)C` [Example 101, ethyl (3E)-3-[3-(3-chlorophenyl)prop-2-yn-1-ylidene]-2,2-dimethylpyrrolidine-1-carboxylate] were, in that order, 66.3 nM and 11.2 nM.
